Results as given in patent publication US20250346569A1, “NEW DERIVATIVES FOR TREATING TRPM3 MEDIATED DISORDERS” (Katholieke Universiteit Leuven, priority 2022, published 2025).

Target: T1, mouse TRPM3α2 (mTRPM3) ion channel (Mus musculus, UniProt J9SQF3)
T1 construct: expressed in transfected cells; host or cells: flip-in HEK293
Experiment: Monitoring the TRPM3 ion channel driven Ca2+ uptake (Fluo-4 AM assay)
Assay type: cell-based
Conditions: TRPM3 overexpressing flip-in HEK293 cells, channel stimulated with Pregnenolone sulfate (PS) 50 μM
Description: Monitoring the TRPM3 ion channel driven Ca^2+ uptake.
In order to monitor the inhibition of the mouse TRPM3α2 (mTRPM3) ion channel by the compounds of the invention, a cellular system making use of an mTRPM3alpha2 or hTRPM3 overexpressing cell line (flip-in HEK293) was used. The TRPM3 channel was stimulated/opened with Pregnenolone sulfate (PS) (50 μM) which results in Ca^2+ influx.
For mTRPM3, the intracellular Ca^2+ was measured with a Calcium responsive dye, Fluor-4 AM ester (Invitrogen). Cells were cultured until a confluence of 80-90%, washed with Versene (Invitrogen) and detached from the surface by a short incubation with 0.05% Trypsin (Invitrogen). The trypsination process was stopped by the addition of complete cell culture medium (DMEM, glutamax,10% FCS,NEAA,Pen-Strep). Cells were collected and resuspended in Krebs buffer without Calcium at RT.
Prior the cell seeding (±2000 cells/well into a black, 384 well plate (Greiner)) the diluted compound was added in the assay plate, together with the PS dissolved in Krebs buffer containing Calcium. […] Directly after cell addition the plates were read on an Envision fluorescence reader (Perkin Elmer) by an Excitation of 485 nm and emission at 535 nm.
Channel inhibition was calculated compared to a non-PS stimulated control versus a condition stimulated with PS (50 μM) with vehicle. The ability of the compounds of the invention to inhibit this activity was determined as: Percentage inhibition=[1−((RFU determined for sample with test compound present−RFU determined for sample with positive control inhibitor) divided by (RFU determined in the presence of vehicle−RFU determined for sample with positive control inhibitor))]*100.
The activities of the Example compounds tested are depicted in the table below. The activity ranges A, B and C refer to IC50 values in the Fluo-4 AM assay as follows: “A”: IC50<1 μM; “B”: 1 μM≤IC50≤20 μM and “C”: IC50>20 μM

T1 sequence (J9SQF3 1-1709 isoform J9SQF3-12): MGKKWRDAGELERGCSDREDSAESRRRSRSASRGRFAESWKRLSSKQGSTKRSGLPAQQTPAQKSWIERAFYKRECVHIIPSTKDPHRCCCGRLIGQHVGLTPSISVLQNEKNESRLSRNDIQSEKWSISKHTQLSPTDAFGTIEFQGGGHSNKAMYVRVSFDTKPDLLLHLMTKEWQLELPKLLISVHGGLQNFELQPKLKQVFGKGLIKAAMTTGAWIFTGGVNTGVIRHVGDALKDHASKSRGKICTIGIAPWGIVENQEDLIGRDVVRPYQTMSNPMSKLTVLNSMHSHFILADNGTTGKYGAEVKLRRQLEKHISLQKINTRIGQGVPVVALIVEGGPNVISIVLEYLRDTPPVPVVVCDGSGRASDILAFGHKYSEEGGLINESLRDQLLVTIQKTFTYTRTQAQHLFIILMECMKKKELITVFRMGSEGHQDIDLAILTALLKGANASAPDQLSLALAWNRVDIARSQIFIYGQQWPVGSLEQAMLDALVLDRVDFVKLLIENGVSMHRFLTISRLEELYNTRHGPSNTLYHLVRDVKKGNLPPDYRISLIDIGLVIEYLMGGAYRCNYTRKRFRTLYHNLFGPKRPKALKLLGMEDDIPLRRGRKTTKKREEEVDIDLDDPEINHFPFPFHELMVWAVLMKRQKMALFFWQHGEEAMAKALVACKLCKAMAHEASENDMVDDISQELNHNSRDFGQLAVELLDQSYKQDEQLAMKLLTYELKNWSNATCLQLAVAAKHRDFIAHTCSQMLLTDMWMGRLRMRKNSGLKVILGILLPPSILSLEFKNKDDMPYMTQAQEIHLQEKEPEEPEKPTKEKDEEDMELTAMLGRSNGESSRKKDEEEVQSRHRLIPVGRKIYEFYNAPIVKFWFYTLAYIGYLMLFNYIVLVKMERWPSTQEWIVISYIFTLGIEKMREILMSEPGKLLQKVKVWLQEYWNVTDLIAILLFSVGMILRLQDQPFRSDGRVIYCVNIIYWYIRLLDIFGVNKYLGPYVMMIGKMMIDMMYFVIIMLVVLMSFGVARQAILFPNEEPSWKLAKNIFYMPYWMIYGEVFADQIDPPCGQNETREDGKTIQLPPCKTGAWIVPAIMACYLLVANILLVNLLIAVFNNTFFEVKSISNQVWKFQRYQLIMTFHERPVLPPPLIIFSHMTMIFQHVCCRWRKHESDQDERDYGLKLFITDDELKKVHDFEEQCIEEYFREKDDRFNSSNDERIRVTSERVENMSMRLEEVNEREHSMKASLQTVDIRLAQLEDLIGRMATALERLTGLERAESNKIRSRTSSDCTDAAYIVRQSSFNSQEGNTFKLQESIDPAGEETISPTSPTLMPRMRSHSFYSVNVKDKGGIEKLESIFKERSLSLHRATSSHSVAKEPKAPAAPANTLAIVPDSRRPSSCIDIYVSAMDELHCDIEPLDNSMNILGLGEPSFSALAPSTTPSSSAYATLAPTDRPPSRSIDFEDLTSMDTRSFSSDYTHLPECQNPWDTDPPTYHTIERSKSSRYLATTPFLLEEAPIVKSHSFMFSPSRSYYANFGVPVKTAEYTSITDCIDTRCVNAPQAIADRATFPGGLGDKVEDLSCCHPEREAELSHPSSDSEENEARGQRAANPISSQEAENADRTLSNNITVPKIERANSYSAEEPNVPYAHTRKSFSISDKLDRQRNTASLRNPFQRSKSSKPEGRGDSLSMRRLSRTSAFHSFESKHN

Row | IC50 | Structure (SMILES)
1 | 1000 to 20000 nM | Cc1sc2ccc(OCC3COC3)cc2c1C(=O)NC(C)(CO)C(N)=O (single isomer, unassigned) [Cpd 068 - En2, 3-hydroxy-2-methyl-2-({2-methyl-5-[(oxetan-3-yl)methoxy]-1-benzothiophen-3-yl}formamido)propanamide]
2 | < 1000 nM | Cc1sc2ccc(OCc3cccnc3C(F)(F)F)cc2c1C(=O)NC1CN(C)CC1(F)F (stereo not drawn) [Cpd 121, N-(4,4-difluoro-1-methylpyrrolidin-3-yl)-2-methyl-5-{[2-(trifluoromethyl)pyridin-3-yl]methoxy}-1-benzothiophene-3-carboxamide]
3 | < 1000 nM | Cc1sc2ccc(OCc3cccnc3C(F)(F)F)cc2c1C(=O)NC1CCOC1 (stereo not drawn) [Cpd 097, 2-methyl-N-(oxolan-3-yl)-5-{[2-(trifluoromethyl)pyridin-3-yl]methoxy}-1-benzothiophene-3-carboxamide]
4 | < 1000 nM | CNC(=O)C1(NC(=O)c2c(C)sc3ccc(OCc4cnc(C)s4)cc23)CCOC1 (single isomer, unassigned) [Cpd 133 - En2, N-methyl-3-{2-methyl-5-[(2-methyl-1,3-thiazol-5-yl)methoxy]-1-benzothiophene-3-amido}oxolane-3-carboxamide]
5 | 1000 to 20000 nM | Cc1sc2ccc(OCc3ccccc3)cc2c1C(=O)NCC(C)(C)O [Cpd 100, 5-(benzyloxy)-N-(2-hydroxy-2-methylpropyl)-2-methyl-1-benzothiophene-3-carboxamide]
6 | < 1000 nM | Cc1sc2ccc(OCc3ccccn3)cc2c1C(=O)N[C@@H](CO)C(N)=O [Cpd 052, (2S)-3-hydroxy-2-({2-methyl-5-[(pyridin-2-yl)methoxy]-1-benzothiophen-3-yl}formamido)propanamide]
7 | 1000 to 20000 nM | Cc1sc2ccc(OCc3ccccc3)cc2c1C(=O)NC1(CO)CC1 [Cpd 073, 5-(benzyloxy)-N-[1-(hydroxymethyl)cyclopropyl]-2-methyl-1-benzothiophene-3-carboxamide]
8 | 1000 to 20000 nM | O=C(NC1CCOC1)c1c(C(F)F)sc2ccc(OCc3ccccc3)cc12 (stereo not drawn) [Cpd 147, 5-(benzyloxy)-2-(difluoromethyl)-N-(oxolan-3-yl)-1-benzothiophene-3-carboxamide]
9 | < 1000 nM | Cc1sc2ccc(OCc3ccccc3)cc2c1C(=O)NC(C)(C)C(N)=O [Cpd 062, 2-{[5-(benzyloxy)-2-methyl-1-benzothiophen-3-yl]formamido}-2-methylpropanamide]
10 | < 1000 nM | Cc1sc2ccc(OCC3CC3)cc2c1C(=O)NC(C)(C)C(N)=O [Cpd 061, 2-{[5-(cyclopropylmethoxy)-2-methyl-1-benzothiophen-3-yl]formamido}-2-methylpropanamide]

Continued, compound first:

Row | Structure (SMILES) | IC50
11 | Cc1sc2ccc(OCc3ccccc3F)cc2c1C(=O)NC1(CO)CCC1 [Cpd 077, 5-[(2-fluorophenyl)methoxy]-N-[1-(hydroxymethyl)cyclobutyl]-2-methyl-1-benzothiophene-3-carboxamide] | < 1000 nM
12 | CCOC(=O)c1c(C)sc2ccc(OC)cc12 [Cpd 110, ethyl 5-methoxy-2-methyl-1-benzothiophene-3-carboxylate] | > 20000 nM
13 | Cc1sc2ccc(OCc3ccccc3F)cc2c1C(=O)NC1CCNCC1(F)F (single isomer, unassigned) [Cpd 095 - En1, N-(3,3-difluoropiperidin-4-yl)-5-[(2-fluorophenyl)methoxy]-2-methyl-1-benzothiophene-3-carboxamide] | 1000 to 20000 nM
14 | Cc1sc2ccc(OCc3cccnc3C(F)(F)F)cc2c1C(=O)NC(C)(C)C(N)=O [Cpd 065, 2-methyl-2-[(2-methyl-5-{[2-(trifluoromethyl)pyridin-3-yl]methoxy}-1-benzothiophen-3-yl)formamido]propanamide] | < 1000 nM
15 | Cc1sc2ccc(OCc3cccnc3C(F)(F)F)cc2c1C(=O)NCC(C)(C)N1CCOCC1 [Cpd 099, 2-methyl-N-[2-methyl-2-(morpholin-4-yl)propyl]-5-{[2-(trifluoromethyl)pyridin-3-yl]methoxy}-1-benzothiophene-3-carboxamide] | 1000 to 20000 nM
16 | Cc1sc2ccc(OCc3ccccc3)cc2c1C(=O)NCC1CCC(=O)N1 (stereo not drawn) [Cpd 102, 5-(benzyloxy)-2-methyl-N-[(5-oxopyrrolidin-2-yl)methyl]-1-benzothiophene-3-carboxamide] | 1000 to 20000 nM
17 | Cc1sc2ccc(OCc3cccnc3C(F)(F)F)cc2c1C(=O)Nc1ccn(C)n1 [Cpd 092, 2-methyl-N-(1-methyl-1H-pyrazol-3-yl)-5-{[2-(trifluoromethyl)pyridin-3-yl]methoxy}-1-benzothiophene-3-carboxamide] | < 1000 nM
18 | CC(C)(O)CNC(=O)c1c(C(F)F)sc2ccc(OCc3ccccc3)cc12 [Cpd 014, 5-(benzyloxy)-2-(difluoromethyl)-N-(2-hydroxy-2-methylpropyl)-1-benzothiophene-3-carboxamide] | > 20000 nM
19 | Cc1ncsc1COc1ccc2sc(C)c(C(=O)NC3CCN(C)C3)c2c1 (stereo not drawn) [Cpd 126, 2-methyl-5-[(4-methyl-1,3-thiazol-5-yl)methoxy]-N-(1-methylpyrrolidin-3-yl)-1-benzothiophene-3-carboxamide] | < 1000 nM
20 | Cc1sc2ccc(OCc3ccccn3)cc2c1C(=O)NC1(CO)CC1 [Cpd 075, N-[1-(hydroxymethyl)cyclopropyl]-2-methyl-5-[(pyridin-2-yl)methoxy]-1-benzothiophene-3-carboxamide] | 1000 to 20000 nM
21 | Cc1ncsc1COc1ccc2sc(C)c(C(=O)O)c2c1 [Cpd 049, 2-methyl-5-[(4-methyl-1,3-thiazol-5-yl)methoxy]-1-benzothiophene-3-carboxylic acid] | 1000 to 20000 nM
22 | Cc1ncsc1COc1ccc2sc(C)c(C(=O)N[C@@H]3CCN(CCO)C3=O)c2c1 [Cpd 028, N-[(3R)-1-(2-hydroxyethyl)-2-oxopyrrolidin-3-yl]-2-methyl-5-[(4-methyl-1,3-thiazol-5-yl)methoxy]-1-benzothiophene-3-carboxamide] | 1000 to 20000 nM
23 | Cc1ncsc1COc1ccc2sc(C)c(C(=O)NCC(C)(C)N3CCOCC3)c2c1 [Cpd 044, 2-methyl-5-[(4-methyl-1,3-thiazol-5-yl)methoxy]-N-[2-methyl-2-(morpholin-4-yl)propyl]-1-benzothiophene-3-carboxamide] | < 1000 nM
24 | Cc1sc2ccc(OCc3ccccn3)cc2c1C(=O)N[C@H](CO)C(N)=O [Cpd 057, (2R)-3-hydroxy-2-({2-methyl-5-[(pyridin-2-yl)methoxy]-1-benzothiophen-3-yl}formamido)propanamide] | < 1000 nM
25 | Cc1sc2ccc(OCc3ccccc3)cc2c1C(=O)NCCN1CCOC1=O [Cpd 106, 5-(benzyloxy)-2-methyl-N-[2-(2-oxo-1,3-oxazolidin-3-yl)ethyl]-1-benzothiophene-3-carboxamide] | 1000 to 20000 nM
26 | CNC(=O)C1(NC(=O)c2c(C)sc3ccc(OCc4cnc(C)s4)cc23)CCOC1 (single isomer, unassigned) [Cpd 133 - En1, N-methyl-3-{2-methyl-5-[(2-methyl-1,3-thiazol-5-yl)methoxy]-1-benzothiophene-3-amido}oxolane-3-carboxamide] | < 1000 nM
27 | Cc1sc2ccc(OCc3ccccn3)cc2c1C(=O)NC1(CO)CCOCC1 [Cpd 082, N-[4-(hydroxymethyl)oxan-4-yl]-2-methyl-5-[(pyridin-2-yl)methoxy]-1-benzothiophene-3-carboxamide] | 1000 to 20000 nM
28 | Cc1ncc(COc2ccc3sc(C)c(C(=O)NC4(CO)CCC4)c3c2)s1 [Cpd 023, N-[1-(hydroxymethyl)cyclobutyl]-2-methyl-5-[(2-methyl-1,3-thiazol-5-yl)methoxy]-1-benzothiophene-3-carboxamide] | < 1000 nM
29 | Cc1ncsc1COc1ccc2sc(C)c(C(=O)NC3(CO)CC3)c2c1 [Cpd 034, N-[1-(hydroxymethyl)cyclopropyl]-2-methyl-5-[(4-methyl-1,3-thiazol-5-yl)methoxy]-1-benzothiophene-3-carboxamide] | < 1000 nM
30 | Cc1sc2ccc(OCc3ccccc3)cc2c1C(=O)NCCN(C)C [Cpd 115, 5-(benzyloxy)-N-[2-(dimethylamino)ethyl]-2-methyl-1-benzothiophene-3-carboxamide] | 1000 to 20000 nM
31 | Cc1sc2ccc(OCc3ccccc3)cc2c1C(=O)NCc1cccc(O)n1 [Cpd 104, 5-(benzyloxy)-N-[(6-hydroxypyridin-2-yl)methyl]-2-methyl-1-benzothiophene-3-carboxamide] | > 20000 nM
32 | Cc1sc2ccc(OCc3ccccc3F)cc2c1C(=O)NC1(CO)CCOCC1 [Cpd 081, 5-[(2-fluorophenyl)methoxy]-N-[4-(hydroxymethyl)oxan-4-yl]-2-methyl-1-benzothiophene-3-carboxamide] | < 1000 nM
33 | Cc1sc2ccc(OCc3cccnc3C(F)(F)F)cc2c1C(=O)N[C@@H](CO)C(N)=O [Cpd 053, (2S)-3-hydroxy-2-[(2-methyl-5-{[2-(trifluoromethyl)pyridin-3-yl]methoxy}-1-benzothiophen-3-yl)formamido]propanamide] | < 1000 nM
